From patent publication US9527858B2, “Compounds and compositions for use in phototherapy and in treatment of ocular neovascular disease and cancers” (Mallinckrodt LLC, priority 2009, dated 2016)

Experiments:
[1] = Escalating dose study on mice; format: in vivo; conditions: intraperitoneal injection
Protocol: The MNTX1 dose was established using an escalating dose study on mice. An intraperitoneal injection dose of 150 mg/kg was chosen. For a dosage of 400 mg/kg, 2 of 2 died, for a dosage of 200 mg/kg, 1 of 4 died; and for a dosage of 150 mg/kg (300 μl of 10 mg/ml), 3 of 3 survived. Therefore, a dose of 150 mg/kg (Intraperitoneal injection, I.P.) was used for each administration in the following orthotopic pancreatic tumor growth inhibition experiments.

[2] = test system: AsPC-1 pancreatic cancer; experiment: Pancreatic tumor growth inhibition studies, orthotopic AsPC-1 pancreatic cancer; format: in vivo, nude mice; conditions: I.P. 150 mg/kg daily for 13 days, 10 animals, sacrificed on day 24; control PBS; FIG. 6
Protocol: In these experiments, the effect of a purified stereoisomer of MNTX on AsPC-1 pancreatic cancer was evaluated.
(§1) Nude mice weighing approximately 25 grams were used. The tail of the pancreas was exposed through an abdominal incision. Then 1×10^6 AsPC-1 cells were injected into the pancreas. The pancreas was replaced in the peritoneal cavity and the incision was closed. A 3-5 mm diameter tumor developed in 10 days.
MNTX1 was formulated at 10 mg/mL in PBS. The 150 mg/kg dose was accomplished by a […] injection of a 10 mg/mL stock solution. Injections were done daily for 13 days, and the 10 animals were subsequently sacrificed on day 24. Treatments start after 10 days of AsPC1 pancreatic tumor cell orthotopic implantation. After two more weeks, the mice are sacrificed and tumor weight is measured for the evaluation of tumor growth inhibition effects. For control, four mice were injected according to the above schedule with PBS only. They were also sacrificed on day 24. FIG. 5 provides a schematic illustrating the experimental design of the pancreatic tumor growth inhibition studies. I.P. treatments (150 mg MNTX1/kg/each injection, 300 μl of 10 mg/ml for each injection totally for 13 times, animal number=10).
FIG. 6 provides experimental results for the pancreatic tumor growth inhibition studies showing the effects of MNTX1 on AsPC-1 pancreatic cancer. […]

[3] = test system: AsPC-1 cells; experiment: Comparative studies, orthotopic AsPC-1 pancreatic tumor in nude mice; format: in vivo; conditions: subQ close to the pancreas, one injection per day for 10 days, total dose 20 mg/mouse; sacrificed at day 24; FIG. 4
Protocol: as §1, with “In these experiments nude mice” for “Nude mice”, “used. First, the” for “used. The”
MNTX was dissolved at 40 mg/mL in phosphate buffered saline (PBS) and then formulated to 100 uL (50 uL drug and 50 uL PBS) and injected subQ close to the pancreas. One injection per day was given for 10 days. The total dose was therefore 20 mg/mouse. For control and comparison, experiments on mice that were 1) not treated, 2) treated with light alone, 3) treated with gemcitibine alone, and 4) treated with Avastin alone using essentially the same procedure as described above were performed. The mice were sacrificed at day 24 and tumor weight was determined.
FIG. 4 provides local tumor burden experimental results for comparative studies involving administration of MNTX, Avastin and Gemcitabine anti-tumor agents. Tumor weight (mg) is shown for tumor conditions of: no treatment (NT); treatment with light alone (light alone); treatment with Gemcitabine alone (GEM); treatment with Avastin alone (Avastin) and treatment with MNTX (MNTX).

[4] = test system: endothelial cells; conditions: cited from earlier work
[5] = test system: VEGF expression; conditions: cited from earlier work
[6] = cited from earlier work

C[N@+]1(CC2CC2)CC[C@@]23c4c5ccc(O)c4CC1C2(O)CCC(=O)C3O5 (single isomer, unassigned; (-)) [MNTX, (−)-R-naltrexone methobromide]
survived ([1]; dosage of 150 mg/kg (300 μl of 10 mg/ml)): 3 of 3
died ([1]; dosage of 200 mg/kg): 1 of 4
died ([1]; dosage of 400 mg/kg): 2 of 2
tumor weight measured at sacrifice [2]: measurably superior to the control
tumor weight measured at sacrifice [3]: measurably superior to the control, Gemcitabine and Avastin conditions
synergy with Avastin to inhibit VEGF expression [4]: synergistic
synergy with 5-fluorouracil ([4]; in endothelial cells): synergistic

COc1ccc2cc3[n+](cc2c1OC)CCc1cc2c(cc1-3)OCO2 [berberine]
inhibition of VEGF expression [5]: some inhibition

C[N@+]1(CC2CC2)CC[C@]23c4c5ccc(O)c4O[C@H]2C(=O)CC[C@@]3(O)[C@H]1C5 [methylnaltrexone, reference compound]
potentiation of the cytotoxic effect of 5-fluorouracil [4]: ~700 ×

α-interferon
adverse effects ([6]; clinically tested for MD): high rate of adverse effects
clinical efficacy for MD ([6]; clinically tested for MD): ineffective

B1: Lucentis: humanized anti-VEGF antibody fragment that inhibits VEGF activity by competitive binding (antibody, chains of the INN, looked up, V domains shown)
VH: EVQLVESGGGLVQPGGSLRLSCAASGYDFTHYGMNWVRQAPGKGLEWVGWINTYTGEPTYAADFKRRFTFSLDTSKSTAYLQMNSLRAEDTAVYYCAKYPYYYGTSHWYFDVWGQGTLVTVSS
VL: DIQLTQSPSSLSASVGDRVTITCSASQDISNYLNWYQQKPGKAPKVLIYFTSSLHSGVPSRFSGSGSGTDFTLTISSLQPEDFATYYCQQYSTVPWTFGQGTKVEIK
modifications: Fab
patients maintaining their baseline vision ([6]; wet macular degeneration, after 12 months of treatment): About 95%
